Assay results taken from publication PMC10296347, “Identification of the Stapled α-Helical Peptide ATSP-7041 as a Substrate and Strong Inhibitor of OATP1B1 In Vitro” (Biomolecules, 2023).

Legend:
in vitro = conditions: human, s9, pH 7.4
OATP1B1 [1] = molecular target: T1, OATP1B1 (Homo sapiens, UniProt Q9Y6L6)
T1 sequence (Q9Y6L6 1-691): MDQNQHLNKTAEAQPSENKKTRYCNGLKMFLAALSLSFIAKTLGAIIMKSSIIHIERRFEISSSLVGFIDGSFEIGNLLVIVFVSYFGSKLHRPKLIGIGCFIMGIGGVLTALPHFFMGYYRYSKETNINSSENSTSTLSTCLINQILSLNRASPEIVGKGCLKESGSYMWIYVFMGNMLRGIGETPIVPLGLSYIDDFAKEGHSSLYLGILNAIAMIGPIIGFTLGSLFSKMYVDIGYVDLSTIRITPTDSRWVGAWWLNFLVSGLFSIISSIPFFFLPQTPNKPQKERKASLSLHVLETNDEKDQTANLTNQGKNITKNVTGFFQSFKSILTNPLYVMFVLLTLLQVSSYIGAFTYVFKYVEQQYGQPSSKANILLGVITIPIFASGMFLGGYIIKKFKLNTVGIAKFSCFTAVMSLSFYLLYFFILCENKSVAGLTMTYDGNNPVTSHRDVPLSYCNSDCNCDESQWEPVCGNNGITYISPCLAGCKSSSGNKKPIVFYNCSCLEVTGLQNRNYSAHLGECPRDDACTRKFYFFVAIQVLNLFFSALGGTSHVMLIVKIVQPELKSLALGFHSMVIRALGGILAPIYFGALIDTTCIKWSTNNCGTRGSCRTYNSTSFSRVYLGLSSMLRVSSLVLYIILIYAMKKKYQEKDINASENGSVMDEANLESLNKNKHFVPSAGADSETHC
Experimental: The inhibitory activities of ATSP-7041 on OATP1B1 were evaluated using OATP1B-expressing HEK293 cells in 96-well plates as described above. For dose-dependent inhibition, ATSP-7041 at the indicated concentrations was added to the transport buffer, and E217βG was used as the substrate. To study the pre-incubation effect, the cells were pre-incubated with 10 μM ATSP-7041 or 10 μM cyclosporine in transport buffer after equilibration with the transport buffer for 30 min at 37 °C and washed twice before the replacement of the transport buffer containing E217βG.
LC/MS analysis data were quantified using Trace Finder 4.1 (Thermo Fisher Scientific, Waltham, MA, USA) for peak detection and area quantification. To study the transport activities of OATP1B1, the OATP1B1-mediated uptake of ATSP-7041 and E217βG was determined by normalization with IS (divide the area of ion peak) and subsequent background-corrected uptake using mock cells. To evaluate the inhibitory activities of ATSP-7041 on OATP1B1, transporter activities were determined as a percent of the control (activities without ATSP-7041) at each concentration, and the half maximal inhibitory concentration (IC50) for the inhibition of OATP1B1 activity by ATSP-7041 was determined by fitting a curve (inhibitor concentrations vs. normalized response) using GraphPad Prism 8 (GraphPad Software, San Diego, CA, USA). […]

OATP1B1 [2] = molecular target: T1, OATP1B1; remark: listed apart in the source
Experimental: (§1) The evaluation of ATSP-7041 as a substrate for OATP1B1 was performed using OATP1B1-expressing HEK293 cells in 24- or 96-well plates according to the manufacturer’s protocol (v1.9 for OATP1B1) with minor modifications. In brief, after equilibration with the transport buffer, the buffer was replaced with a fresh transport buffer containing the indicated concentrations of ATSP-7041 or 1 μM E217βG in the presence or absence of positive control inhibitors (50 μM rifampicin or 10 μM cyclosporine). After incubation for the indicated time at 37 °C, the cells were immediately rinsed twice with an ice-cold transport buffer. Substrates were extracted by incubation with 400 μL (for 24-well) or 100 μL (for 96-well) of 0.1% formic acid in acetonitrile-containing internal standard (IS) (0.125 μM benzyl-ATSP-7041 for ATSP-7041 in uptake experiment of various concentrations of ATSP-7041 or 0.0125 μM for ATSP-7041 in all other experiments of benzyl-ATSP-7041 and 0.1 μM estradiol-3β-glucuronide) for 5 min at 20–25 °C, filtered using a PVDF-based filter, diluted 1.4 times (ATSP-7041) or 2 times (E217βG) with water, and analyzed using LC/MS.

BCRP = molecular target: T2, BCRP (Homo sapiens, UniProt Q9UNQ0); assay: ATP-dependent uptake by inside-out membrane vesicles expressing BCRP; conditions: Lucifer yellow 50 μM
T2 sequence (Q9UNQ0 1-655): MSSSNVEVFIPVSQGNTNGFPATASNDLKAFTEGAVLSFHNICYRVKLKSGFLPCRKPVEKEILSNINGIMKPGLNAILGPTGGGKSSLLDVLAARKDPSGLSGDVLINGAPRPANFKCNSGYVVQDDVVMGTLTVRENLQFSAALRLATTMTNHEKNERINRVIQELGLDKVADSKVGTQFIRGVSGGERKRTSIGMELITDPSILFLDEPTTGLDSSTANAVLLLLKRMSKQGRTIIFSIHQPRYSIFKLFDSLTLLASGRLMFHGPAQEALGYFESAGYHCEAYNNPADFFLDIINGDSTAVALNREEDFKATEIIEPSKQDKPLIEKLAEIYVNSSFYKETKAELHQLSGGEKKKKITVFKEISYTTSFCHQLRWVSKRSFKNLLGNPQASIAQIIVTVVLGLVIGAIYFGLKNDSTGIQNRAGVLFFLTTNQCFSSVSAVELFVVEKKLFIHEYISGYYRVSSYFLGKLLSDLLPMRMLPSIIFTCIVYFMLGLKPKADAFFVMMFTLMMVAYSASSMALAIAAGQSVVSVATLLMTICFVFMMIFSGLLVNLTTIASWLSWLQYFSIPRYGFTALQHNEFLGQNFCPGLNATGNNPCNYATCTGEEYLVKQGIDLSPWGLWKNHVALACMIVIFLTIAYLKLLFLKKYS

P-gp = P-gp (Homo sapiens, UniProt P08183); assay: ATP-dependent uptake by inside-out membrane vesicles expressing P-gp; conditions: NMQ 2 μM
Sequence of P-gp (P08183 whole entry): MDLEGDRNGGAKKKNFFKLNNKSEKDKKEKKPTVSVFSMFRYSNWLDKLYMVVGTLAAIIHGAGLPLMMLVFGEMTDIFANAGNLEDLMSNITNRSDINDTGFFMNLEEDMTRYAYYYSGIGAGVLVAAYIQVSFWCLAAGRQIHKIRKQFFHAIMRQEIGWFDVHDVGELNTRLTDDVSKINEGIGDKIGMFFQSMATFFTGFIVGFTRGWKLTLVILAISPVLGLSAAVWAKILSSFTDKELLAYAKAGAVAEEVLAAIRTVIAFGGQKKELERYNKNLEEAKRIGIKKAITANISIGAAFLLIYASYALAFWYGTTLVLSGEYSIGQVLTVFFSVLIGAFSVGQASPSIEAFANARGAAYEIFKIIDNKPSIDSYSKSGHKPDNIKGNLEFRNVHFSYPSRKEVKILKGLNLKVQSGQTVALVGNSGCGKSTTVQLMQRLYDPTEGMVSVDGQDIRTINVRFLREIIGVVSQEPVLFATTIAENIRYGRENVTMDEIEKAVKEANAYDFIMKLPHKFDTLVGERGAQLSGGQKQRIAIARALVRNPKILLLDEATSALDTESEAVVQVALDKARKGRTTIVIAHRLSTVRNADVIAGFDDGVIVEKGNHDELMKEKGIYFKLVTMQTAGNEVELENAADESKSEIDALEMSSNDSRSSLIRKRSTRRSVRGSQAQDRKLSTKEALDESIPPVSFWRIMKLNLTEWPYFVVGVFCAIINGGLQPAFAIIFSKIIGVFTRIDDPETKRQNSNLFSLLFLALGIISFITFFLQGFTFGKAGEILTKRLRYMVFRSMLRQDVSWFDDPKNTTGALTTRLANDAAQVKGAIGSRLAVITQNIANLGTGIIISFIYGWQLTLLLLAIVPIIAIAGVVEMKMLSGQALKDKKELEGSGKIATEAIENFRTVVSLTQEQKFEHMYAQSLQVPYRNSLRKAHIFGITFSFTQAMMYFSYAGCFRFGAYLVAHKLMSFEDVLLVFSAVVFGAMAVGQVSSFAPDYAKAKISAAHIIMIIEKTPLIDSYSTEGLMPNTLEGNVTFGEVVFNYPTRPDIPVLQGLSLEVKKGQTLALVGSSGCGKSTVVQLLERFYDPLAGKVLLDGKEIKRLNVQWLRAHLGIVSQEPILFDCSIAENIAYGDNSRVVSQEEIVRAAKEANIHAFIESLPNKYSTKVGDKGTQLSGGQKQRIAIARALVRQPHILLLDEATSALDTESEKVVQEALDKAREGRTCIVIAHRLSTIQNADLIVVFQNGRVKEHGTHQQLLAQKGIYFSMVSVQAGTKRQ

OATP1B3 = molecular target: T3, OATP1B3 (Homo sapiens, UniProt Q9NPD5); assay: Uptake by OATP1B3-expressing HEK293 cells (substrate evaluation); conditions: E217βG 3 μM, 5 min, 37 °C
T3 sequence (Q9NPD5 1-702): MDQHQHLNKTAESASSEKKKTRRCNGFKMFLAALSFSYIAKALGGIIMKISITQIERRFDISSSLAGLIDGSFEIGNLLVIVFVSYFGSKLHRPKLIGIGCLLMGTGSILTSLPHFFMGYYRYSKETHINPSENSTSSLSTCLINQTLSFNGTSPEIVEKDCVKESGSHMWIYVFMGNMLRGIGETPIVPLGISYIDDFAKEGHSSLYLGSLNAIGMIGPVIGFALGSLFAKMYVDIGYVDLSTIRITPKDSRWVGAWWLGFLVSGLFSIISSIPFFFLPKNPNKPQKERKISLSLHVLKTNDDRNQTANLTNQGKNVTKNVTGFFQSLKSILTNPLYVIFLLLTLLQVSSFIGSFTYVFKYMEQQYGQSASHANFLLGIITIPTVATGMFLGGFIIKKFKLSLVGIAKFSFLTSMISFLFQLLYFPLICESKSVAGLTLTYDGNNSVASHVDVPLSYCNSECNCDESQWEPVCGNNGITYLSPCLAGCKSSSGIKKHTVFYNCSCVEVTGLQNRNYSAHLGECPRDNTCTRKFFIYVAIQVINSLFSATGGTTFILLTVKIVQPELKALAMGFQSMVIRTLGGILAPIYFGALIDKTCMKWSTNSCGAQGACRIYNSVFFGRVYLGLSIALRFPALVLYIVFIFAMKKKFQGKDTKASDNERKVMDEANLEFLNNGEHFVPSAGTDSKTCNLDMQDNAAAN
Experimental: after the time course assessment (0, 5, 10, 20, 30, 40, and 60 min). Similarly, the inhibitory […]
measuring testosterone and 6β-hydroxytestosterone at 90 min, after the time course assessment (0, 10, 20, 40, 60, 90, and 120 min). Other human liver S9 (B, C, and D) fractions were also used to evaluate vendor differences. Midazolam, 1ʹ-hydroxymidazolam, testosterone, and 6β-hydroxytestosterone were detected using LC/MS.
4. Evaluation of ATSP-7041 as a substrate of transporters
The evaluation of ATSP-7041 as a substrate for OATP1B1 and OATP1B3 transporters was performed using OATP1B-expressing HEK293 cells in 24-well plates according to the manufacturer’s protocol (v1.9 for OATP1B1 and v2.0 for OATP1B3) with minor modifications.
In brief, after equilibration with the transport buffer, the buffer was replaced with a fresh transport buffer containing ATSP-7041 (0.2 μM) or E217βG (1 μM for OATP1B1 or 3 μM for OATP1B3). After incubation for 5 min at 37 °C, the cells were immediately rinsed twice with ice-cold transport buffer. Substrates were extracted by incubation with 400 μL of 0.1% formic acid in acetonitrile containing IS (0.0125 μM benzyl-ATSP-7041 and 0.1 μM estradiol-3β-glucuronide) for 5 min at 20-25 °C, filtered using a PVDF-based filter, diluted 1.4 times (ATSP-7041) or 2 times (E217βG) with water, and analyzed by LC/MS. […]

OATP1B1 [3] = molecular target: T1, OATP1B1; assay: Uptake by OATP1B1-expressing HEK293 cells (substrate evaluation); conditions: E217βG 1 μM, 5 min, 37 °C
Experimental: as §1
LC/MS analysis data were quantified using Trace Finder 4.1 (Thermo Fisher Scientific, Waltham, MA, USA) for peak detection and area quantification. […] Differences in all figures were analyzed and all data were plotted using GraphPad Prism 9 (GraphPad Software). […]

CC(=O)N[C@@H](CC(C)C)C(=O)N[C@H](C(=O)N[C@@H](Cc1ccccc1)C(=O)N[C@]1(C)CCCCCCC=CCCC[C@@](C)(C(=O)N[C@@H](CO)C(=O)N[C@@H](C)C(=O)N[C@@H](C)C(N)=O)NC(=O)[C@H](CC2CCC2)NC(=O)[C@H](CCC(N)=O)NC(=O)[C@H](C)NC(=O)[C@H](Cc2c[nH]c3ccccc23)NC(=O)[C@H](Cc2ccc(O)cc2)NC(=O)[C@H](CCC(=O)O)NC1=O)[C@@H](C)O [ATSP-7041]
remaining at 24 h, 0.5 μM (in vitro): 91.6% | IC50 (OATP1B1 [1]): 810 nM | inhibition at 10 µM (OATP1B1 [1]): > 96%

CO[C@H]1/C=C/O[C@@]2(C)Oc3c(C)c(O)c4c(O)c(c(/C=N/N5CCN(C)CC5)c(O)c4c3C2=O)NC(=O)/C(C)=C\C=C\[C@H](C)[C@H](O)[C@@H](C)[C@@H](O)[C@@H](C)[C@H](OC(C)=O)[C@@H]1C [rifampicin]
uptake of control substrate E217βG by OATP1B1-expressing HEK293 cells with inhibitor, % of without inhibitor (OATP1B1 [2]; rifampicin 50 μM, E217βG 1 μM, 5 min co-incubation): < 4% | effect of index inhibitors on OATP1B1-dependent uptake of ATSP-7041 (OATP1B1 [2]; substrate ATSP-7041 0.2 μM, rifampicin 50 μM or cyclosporine 10 μM, 5 and 60 min, 37 °C): significantly inhibited

Lucifer yellow
ATP-dependent uptake of positive control substrate by BCRP compared to mock vesicles (BCRP): clearly observed

C=C[C@H]1C[N+]2(C)CC[C@H]1C[C@@H]2[C@@H](O)c1ccnc2ccc(OC)cc12 [NMQ, N-methyl-quinidine]
ATP-dependent uptake of positive control substrate by P-gp compared to mock vesicles (P-gp): clearly observed

C[C@]12CC[C@@H]3c4ccc(O)cc4CC[C@H]3[C@@H]1CC[C@@H]2O[C@@H]1O[C@H](C(=O)O)[C@@H](O)[C@H](O)[C@H]1O [E217βG, Estradiol-17β-glucuronide]
uptake of control substrate in OATP1B3-transfected HEK293 cells relative to mock cells (OATP1B3): ~137 fold | uptake of control substrate in OATP1B1-transfected HEK293 cells relative to mock cells (OATP1B1 [3]): approximately 611 fold
